Reference: patent US20200108029A1, “METHODS AND SYSTEMS FOR TREATING OVERWEIGHT INDIVIDUALS” (LiveLight LLC, priority 2013, published 2020)
Like-named read-outs stand apart in the source and are kept apart here.

How the values were obtained:
[1] = test system: overweight (7) and obese (16) patients; experiment: study of customized weekly dose patterns of moderate and low dose phentermine capsules; type: in vivo, human
Procedure: A study was performed including 23 overweight (7) and obese (16) patients whose average initial weight was 207 lb. Inclusion and exclusion criteria were similar to those of many published phentermine clinical trials. The patients were offered conventional dietary advice, provided meal replacements in the form of one to two commercial shakes (Usana Health Sciences, Salt Lake City, Utah), and were encouraged to exercise. Historical controls available from many published data about weight loss that involved dietary advice, meal replacement, and encouragement to exercise were used.
During the study, each patient was prescribed a customized dose pattern level of moderate capsules of phentermine and low dose capsules of phentermine that were provided on a biweekly basis in a 7-compartment blister pack where each blister contained a daily red capsule. The patient was instructed to take the appropriate daily capsule in the morning around breakfast time. The pack was labeled “each capsule contains up to 35 mg of phentermine.” In this example, each capsule contained 35 mg, 15 mg, 10 mg, 7.5 mg or 0 mg of phentermine in addition to inert excipients. The patients received two dose pattern weekly medications strips every two weeks.
In addition to the pills, patients were given a smartphone app or access to a browser-based reporting form where they could report their daily weight, drug compliance, hunger level, exercise level, and side effects experienced. The data was fed directly to a database, which was analyzed by the physician administering the trial and their assistant.
The algorithm for treatment included the following steps:
(1) Each patient was started on a weight loss dose pattern with a midlevel weekly phentermine dose pattern level 2 as shown in FIG. 2. […]
(2) The maximum tolerated weight loss dose pattern for the patient was determined by reviewing the patient's current dose level pattern and his or her electronically reported daily hunger level and side effects such as sleeplessness. […]

[2] = test system: patients in medical weight reduction; details: Truant, cited from earlier work
patients = experiment: pooled previously published phentermine clinical trials (FIG. 1A); type: in vivo, human; details: dropouts included as having lost no net weight
Source text: Studies using phentermine alone or phentermine mixed with a placebo have reported significant patient dropout rates in a typical 8-12 weeks phentermine clinical trial (Lucey et al “Chlorphentermine, A New ‘Appetite Suppressant,’ A Cross-Over Double-Blind Trial,” Ulster Med. J., 1962, pages 181-184 reports a 66% dropout rate, Kim et al., “Effects on Weight Reduction and Safety of Short-Term Phentermine Administration in Korean Obese People,” Yonsei Med J., 2006 Vol. 47, No. 5, pages 614-625 reports a 47% dropout rate, Truant reports a 66% dropout rate, Munro reports a 41% dropout rate, and Langlois et al., “A Double-Blind Clinical Evaluation of the Safety and Efficacy of Phentermine Hydrochloride (Fastin) in the Treatment of Exogenous Obesity,” Curr Ther Res Clin Exp., 1974, Vol. 16, No. 4, pages 289-296 reports a 41% dropout rate). For broad clinical adoption, the intent to treat weight loss, e.g., the average weight loss of all the patients that were enrolled in the study, is the key measure.
FIG. 1A is a table showing the results of various previously published clinical trials using phentermine.

obesity patients = details: Munro, cited from earlier work

CC(C)(N)Cc1ccccc1 [phentermine, α-dimethyl-β-phenylethylamine]
patients failing to complete the first 12 weeks in the program ([1]; first 12 weeks, indicates tolerability of the regimen): None of the patients failed to complete the first 12 weeks | average twelve-week weight loss ([1]; hunger and weight responsive patient-specific regimen, 12 weeks, intent to treat basis): 23 lb | reported side effects rate ([1]; once the initial dose was titrated): Lower reported side effects rate | weight lost ([2]; phentermine for twelve weeks except placebo on weeks 4, 8, and 12): 16.6 lb | weight lost ([2]; phentermine for twelve weeks): 18.8 lb | intent to treat weight loss (patients): 9.0 lb | average weight loss, intermittent versus continuous (obesity patients; 12-week treatment with weeks 4 through 8 on placebo versus phentermine for all 12 weeks): lost as much weigh on average | weight loss (obesity patients; alternating monthly placebo/active trial, twelve weeks): 15 lbs
